From patent publication US9550763B2, “Heterocyclic ring and carbocyclic derivative” (Shionogi & Co., Ltd., priority 2012, dated 2017)

molecular target: human P2X3 receptor (Homo sapiens (Human), UniProt P56373); experiment: Evaluation of human P2X3 receptor inhibitory activity (Test Example 1-2, FLIPR 384, 384-well, 150 nM ATP); format: cell-based; details: C6BU-1 cell transfected with human P2X3 receptor gene; method of Test Example 1-2 (compounds I-301 to I-483); read-out: IC50 (human P2X3 receptor inhibitory activity)
Sequence (P56373 whole entry): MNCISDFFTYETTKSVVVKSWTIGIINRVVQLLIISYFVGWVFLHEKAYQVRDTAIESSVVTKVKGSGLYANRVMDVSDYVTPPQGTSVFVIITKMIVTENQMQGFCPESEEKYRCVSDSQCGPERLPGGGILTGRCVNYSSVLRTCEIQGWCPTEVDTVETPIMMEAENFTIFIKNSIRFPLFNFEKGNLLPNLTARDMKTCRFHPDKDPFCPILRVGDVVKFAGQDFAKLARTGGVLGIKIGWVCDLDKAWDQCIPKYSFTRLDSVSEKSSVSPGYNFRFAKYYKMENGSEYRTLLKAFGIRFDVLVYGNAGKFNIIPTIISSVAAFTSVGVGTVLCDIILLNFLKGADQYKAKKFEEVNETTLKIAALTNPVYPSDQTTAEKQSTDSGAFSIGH
Protocol: Stably expressing cell line (C6BU-1 cell transfected with human P2X3 receptor gene (GenBank accession number Y07683) was used. The cells were seeded in a 384-well microtiter plate at a concentration of 3000 cells/well and cultured in the medium (7.0% fetal bovine serum, 7.0% horse serum, 1% antibiotic and antifungal in DMEM) for one day at 37° C. under 5% carbon dioxide atmosphere. The medium was replaced with 4 μM Fluo-3-AM solution (20 mM HEPES, […], 5.27 mM KCl, 0.9 mM MgCl2, 1.26 mM CaCl2, 5.6 mM D-glucose, 2.5 mM probenecid, 0.5% BSA, and 0.04% Pluronic F-127, pH 7.5) and incubated at 37° C. under 5% dioxide carbon atmosphere for one hour. The plate was washed with washing buffer (20 mM HEPES, 137 mM NaCl, 5.27 mM KCl, 0.9 mM MgCl2, 1.26 mM CaCl2, 5.6 mM D-glucose, 2.5 mM probenecid, pH7.5), and each well was added with 20 μL of this buffer. The plate was placed in High-Throughput Screening System FLIPR 384 (Molecular Device Co.). Measurement of fluorescence intensity by FLIPR 384 was started, and 20 μL of DMSO solutions containing different concentrations of the test compound as prepared by dilution with dilution buffer (20 mM HEPES, 137 mM NaCl, 5.27 mM KCl, 0.9 mM MgCl2, 1.26 mM CaCl2, 5.6 mM D-glucose, 2.5 mM probenecid, 0.1% Pluronic F-127, pH 7.5) were dispensed to each well through the built-in automatic dispenser. Five minutes after, 150 nM ATP solution (25 μL) prepared by dilution with the dilution buffer was dispensed through the built-in automatic dispenser, and the measurement of fluorescence intensity was continued for 4 min. For each well, the specific maximum fluorescence intensity was calculated as the ratio of the maximum fluorescence intensity after addition of the ATP solution to the fluorescence intensity at the starting of the measurement. The 50% inhibitory concentration (IC50) was calculated under the assumption that the specific maximum fluorescence intensity without test compound is 0% inhibition and that the specific maximum fluorescence intensity when the dilution buffer was added in place of ATP solution is 100% inhibition, to evaluate the inhibitory activity of the test compound. The specific maximum fluorescence intensity and IC50 were calculated using Spotfire (Science & Technology Systems, Inc.)
The data of the compounds I-001 to I-300 are the results by the method mentioned in Test Example 1-1, and the data of the compounds I-301 to I-483 are the results by the method mentioned in Test Example 1-2.

IC50 [nM] | Structure (SMILES)
< 30000 | CN(C)c1ncc(Nc2ccc(Oc3ccc(F)cn3)cc2)c(Cc2ccc(F)cc2)n1 [Compound I-481, 2-dimethylamino-4-(4-fluorobenzyl)-5-[4-(5-fluoro-2-pyridyloxy)phenylamino]pyrimidine]
< 30000 | CSc1ncc(Nc2ccc(Oc3ccc(F)cn3)cc2)c(Cc2ccc(F)cc2)n1 [Compound I-479]
< 30000 | CC(C)(C)c1cc(Nc2ccc(Oc3cccc(C(N)=O)n3)cc2)n(Cc2ccc(Cl)cc2)n1 [Compound I-468, 3-t-butyl-1-(4-chlorobenzyl)-5-[4-(6-carbamoyl-2-pyridyloxy)phenylamino]pyrazole]
< 30000 | CC(C)n1ccc(Nc2ccc(Oc3cccc(C(N)=O)n3)cc2)c(Cc2ccc(Cl)cc2)c1=O [Compound I-467]
< 30000 | O=C(O)c1cccc(Oc2ccc(Nc3nc4ccccc4n3Cc3ccc(Cl)cc3)cc2)n1 [Compound I-455]
< 30000 | CN(C)c1ccc(Nc2ccc(Oc3ccc(F)cn3)cc2)c(Cc2ccc(Cl)cc2)c1 [Compound I-464, 1-(4-chlorobenzyl)-3-dimethylamino-6-[4-(5-fluoro-2-pyridyloxy)phenylamino]benzene]

same assay, conditions: human P2X3 receptor in C6BU-1 cells; Test Example 1-2 (compounds I-301 to I-483); read-out: P2X3 IC50

Structure (SMILES) | IC50 [nM]
N#Cc1cccc(Oc2ccc(/N=c3\[nH]cc(Nc4ccon4)c(=O)n3Cc3ccc(Cl)cc3)cc2)n1 [Compound I-319] | 19
O=C(Nc1cnoc1)c1cn(Cc2ccc(Cl)cc2)c(Nc2ccc(Oc3cccc(F)n3)cc2)nc1=O [Compound I-397] | 56
COC(=O)C(C)(C)Cn1c(=O)cc(Nc2ccc(Oc3ccc(F)cn3)c(C)n2)n(C[C@H]2CC[C@H](C)CC2)c1=O [Compound I-444] | 9
Cc1nc(Nc2cc(=O)n(CCCC(=O)O)c(=O)n2Cc2ccc(Cl)cc2)ccc1Oc1ccc(F)cn1 [Compound I-361] | 32
CN(C)C(=O)c1c[nH]/c(=N\c2ccc(Oc3ccon3)cc2)n(Cc2ccc(Cl)cc2)c1=O [Compound I-346] | 346
CCC(=O)Nc1c[nH]/c(=N\c2ccc(Oc3ccc(C#N)nn3)cc2)n(Cc2ccc(Cl)cc2)c1=O [Compound I-306] | 19
Cc1nc(Nc2cc(=O)n(C(C)C)c(=O)n2Cc2ccc(Cl)cc2)ccc1Oc1cccc(C(=O)O)n1 [Compound I-341] | 10
Cc1noc(-c2c[nH]/c(=N\c3ccc(Oc4ccc(C(N)=O)nn4)cc3)n(Cc3ccc(Cl)cc3)c2=O)n1 [Compound I-315] | 10
NNC(=O)c1c[nH]/c(=N\c2ccc(Oc3ccon3)cc2)n(Cc2ccc(Cl)cc2)c1=O [Compound I-423] | 81
COC(=O)c1cccc(Oc2ccc(/N=c3\[nH]cc(C4CCOCC4)c(=O)n3Cc3ccc(Cl)cc3)cc2)n1 [Compound I-476] | 66
CC(C)n1ccc(Nc2ccc(Oc3cccc(C(=O)O)n3)cc2)c(Cc2ccc(Cl)cc2)c1=O [Compound I-466] | 597
CC(C)CNC(=O)c1cn(Cc2ccc(Cl)cc2)c(Nc2ccc(Oc3cccc(F)n3)cc2)nc1=O [Compound I-374] | 46
C[C@H](NC(=O)c1cn(Cc2ccc(Cl)cc2)c(Nc2ccc(Oc3cccc(F)n3)cc2)nc1=O)C(N)=O [Compound I-381] | 4
Cc1nnc(-c2c[nH]/c(=N\c3ccc(Oc4cccc(C(=O)O)n4)cc3)n(Cc3ccc(Cl)cc3)c2=O)o1 [Compound I-328] | 11
O=C(NCC1CCOC1)c1cn(Cc2ccc(Cl)cc2)c(Nc2ccc(Oc3cccc(F)n3)cc2)nc1=O (stereo not drawn) [Compound I-396] | 25
O=C(NCC1COCCO1)c1cn(Cc2ccc(Cl)cc2)c(Nc2ccc(Oc3cccc(F)n3)cc2)nc1=O (stereo not drawn) [Compound I-379] | 96
CC(C)(C)c1c[nH]/c(=N\c2ccc(Oc3cccc(C(=O)O)n3)cc2)n(Cc2ccc(Cl)cc2)c1=O [Compound I-477] | 5
O=C(O)c1coc(-c2c[nH]/c(=N\c3ccc(Oc4ccon4)cc3)n(Cc3ccc(Cl)cc3)c2=O)n1 [Compound I-454] | 160
CC(C)(C)c1c[nH]/c(=N\c2ccc(Oc3cccc(C(N)=O)n3)cc2)n(Cc2ccc(Cl)cc2)c1=O [Compound I-482] | 251
COC(=O)[C@H](C)[C@H](C)n1c(=O)cc(Nc2ccc(Oc3ccc(F)cn3)cc2)n(Cc2ccc(Cl)cc2)c1=O [Compound I-323] | 26
CC(=O)NCCNC(=O)c1cn(Cc2ccc(Cl)cc2)c(Nc2ccc(Oc3cccc(F)n3)cc2)nc1=O [Compound I-370] | 384

Structure (SMILES) | IC50 [nM]
O=C(NC1CCCC1)c1cn(Cc2ccc(Cl)cc2)c(Nc2ccc(Oc3cccc(F)n3)cc2)nc1=O [Compound I-376] | 40
COc1cn(Cc2ccc(Cl)cc2)c(Nc2ccc(Oc3cccc(C#N)n3)cc2)nc1=O [Compound I-350] | 405
COCCCNC(=O)c1cn(Cc2ccc(Cl)cc2)c(Nc2ccc(Oc3cccc(F)n3)cc2)nc1=O [Compound I-373] | 136
CC1(NC(=O)c2cn(Cc3ccc(Cl)cc3)c(Nc3ccc(Oc4cccc(F)n4)cc3)nc2=O)CCOCC1 [Compound I-385] | 16
Cc1cc(NC(=O)c2cn(Cc3ccc(Cl)cc3)c(Nc3ccc(Oc4cccc(F)n4)cc3)nc2=O)no1 [Compound I-371] | 80
NC(=O)[C@H](CO)NC(=O)c1cn(Cc2ccc(Cl)cc2)c(Nc2ccc(Oc3cccc(F)n3)cc2)nc1=O [Compound I-375] | 4
O=c1c(-c2ncno2)c[nH]/c(=N\c2ccc(Oc3ccon3)cc2)n1Cc1ccc(Cl)cc1 [Compound I-449] | 179
Cc1noc(-c2c[nH]/c(=N\c3ccc(Oc4ccon4)cc3)n(Cc3ccc(Cl)cc3)c2=O)n1 [Compound I-345] | 38
COCCn1c(=O)cc(Nc2ccc(Oc3ccc(F)nc3)cc2)n(Cc2ccc(Cl)cc2)c1=O [Compound I-342] | 10
O=c1c(Nc2ccon2)c[nH]/c(=N\c2ccc(Oc3ccon3)cc2)n1Cc1ccc(Cl)cc1 [Compound I-307] | 21
C#CCNC(=O)c1c[nH]/c(=N\c2ccc(Oc3ccc(F)cn3)cc2)n(Cc2ccc(Cl)cc2)c1=O [Compound I-427] | 5
Cn1nccc1NC(=O)c1cn(Cc2ccc(Cl)cc2)c(Nc2ccc(Oc3cccc(F)n3)cc2)nc1=O [Compound I-391] | 30
O=C1CCCN1C1=CN[C@@H](Nc2ccc(Oc3ccon3)cc2)N(Cc2ccc(Cl)cc2)C1=O [Compound I-356] | 212
COC(=O)[C@@H](C)Cn1c(=O)cc(Nc2ccc(Oc3ccc(F)cn3)c(C)n2)n(Cc2ccc(Cl)cc2)c1=O [Compound I-362] | 7
COC(=O)c1ccc(Oc2ccc(/N=c3\[nH]cc(C(C)C)c(=O)n3Cc3ccc(Cl)cc3)cc2)nc1 [Compound I-366] | 91
Cc1c[nH]c2ccc(Nc3ncc(NC(=O)C4CCOCC4)c(=O)n3Cc3ccc(Cl)cc3)cc12 [Compound I-414] | 392
Cc1noc(-c2c[nH]/c(=N\c3ccc(Oc4ncc(C(=O)O)s4)cc3)n(Cc3ccc(Cl)cc3)c2=O)n1 [Compound I-314] | 10
COc1cn(Cc2ccc(Cl)cc2)c(Nc2ccc(Oc3cccc(C(=O)O)n3)cc2)nc1=O [Compound I-404] | 102
CCC(=O)Nc1c[nH]/c(=N\c2ccc(Oc3ccc(C(=O)OC)nn3)cc2)n(Cc2ccc(Cl)cc2)c1=O [Compound I-305] | 5
N#Cc1cccc(Oc2ccc(/N=c3\[nH]cc(N4CCCC4=O)c(=O)n3Cc3ccc(Cl)cc3)cc2)n1 [Compound I-332] | 179
O=C(O)c1cccc(Oc2ccc(/N=c3\[nH]cc(C4CCOCC4)c(=O)n3Cc3ccc(Cl)cc3)cc2)n1 [Compound I-478] | 5
